{"source": "patent US20240300975A1", "about": "“DIMETHYL-SUBSTITUTED THIAZOLOLACTAM COMPOUND AND USE THEREOF” (D3 Bio (Wuxi) Co., Ltd., priority 2021, published 2024)", "key": {"In vivo PK study in mice": {"experiment": "In vivo PK study in mice", "details": "female BALB/c mice", "excerpt": "Female BALB/c mice were used as assay animals to determine the blood concentration of the compound and evaluate the pharmacokinetic behavior after a single administration.\nFour healthy adult female BALB/c mice were selected, wherein 2 mice were in an intravenous injection group and 2 mice were in an oral group. The vehicle in the intravenous injection group was 5% DMSO+95% (20% HP-β-CD). The compound to be assayed was mixed with an appropriate amount of vehicle for intravenous injection, vortexed and sonicated to prepare a clear solution of 0.5 mg/mL. The clear solution was filtered by a microporous membrane, and then ready for use. The vehicle in the oral group was 5% DMSO+95% (20% HP-β-CD). The compound to be assayed was mixed with the vehicle, vortexed and sonicated to prepare a solution of 0.3 mg/mL. Mice were administered 1 mg/kg intravenously or 3 mg/kg orally, and then whole blood was collected for a certain period. Plasma was prepared. The drug concentration was analyzed by LC-MS/MS method, and the pharmacokinetic parameters were calculated by Phoenix WinNonlin software (Pharsight, USA)."}, "canine plasma albumin": {"test_system": "canine plasma albumin", "experiment": "Plasma protein binding (PPB), canine plasma", "type": "in vitro ADME", "details": "ultracentrifugation, 37° C., 4 h", "experimental": "The binding degree of the assay compound to human/mouse/rat/canine/monkey plasma albumin was studied.\n• 1) Matrix preparation: on the day of the assay, plasma was thawed in cold water and centrifuged at 3220 rpm for 5 min to remove all clots. The pH of the resulting plasma was measured and adjusted to 7.4±0.1 using 1% phosphoric acid or 1N sodium hydroxide as needed. • 2) Dilution procedure for the assay compound: the assay compound was dissolved in dimethyl sulfoxide (DMSO) to prepare stock solutions with concentrations of 10 mM and 2 mM, respectively. A 40 μM working solution was prepared by diluting 2 μL of stock solution (2 mM) with 98 μL of DMSO. A 400 μM working solution of the control compound was prepared by diluting 10 μL of stock solution with 240 μL of DMSO. The working solution of the compound (5 μL) was mixed well with a blank matrix (995 μL) at a ratio of 1:200 to prepare a loading matrix.\n• a) An equal volume of 30 μL of loading matrix (n=2) was transferred to a sample collection plate to prepare a time 0 (TO) sample for residue determination. The sample was immediately matched with the corresponding blank buffer to a final volume of 60 μL, and the volume ratio of plasma to buffer in each well was 1:1. […] The mixture was centrifuged at 4000 rpm for 20 min and 100 μL of supernatant from each sample was analyzed by LC-MS/MS."}, "[1]": {"test_system": "human melanoma A375 cells", "experiment": "In vivo efficacy in mouse model of human melanoma A375", "details": "for TGI: PO, BID, day 21, A375 xenograft nude mouse", "experimental": "The anti-tumor effect of WX001 was evaluated using a subcutaneous xenograft tumor model of human melanoma A375 cells in nude mouse.\n• Species: mouse • Strain: BALB/c nude mouse • Age: 6-8 weeks old • Gender: female • Body weight: 18-22 grams • Supplier: Vital River Laboratory Animal Technology Co., Ltd.\n• 1) Assay cells and culture: Human melanomaA375 cells were cultured in monolayer in vitro. The culture conditions were DMEM medium plus 10% fetal bovine serum, and a 37° C. 5% CO2 incubator. Routine digestion with trypsin-EDTA was performed twice a week for passage. When the cell saturation was 80%-90% and the amount reached the requirement, the cells were harvested, counted, and inoculated; • 2) Tumor tissue inoculation and grouping: 0.1 mL (5×10^5) of A375 cells were subcutaneously inoculated into the right armpit of each mouse. When the average tumor volume reached 170 mm^3, the animals were randomly divided into 4 groups and the administration was started.\n• 3) Daily observation of assay animals: The development of this assay protocol and any modifications were evaluated and approved by the Institutional Animal Care and Use Committee (IACUC). The use and welfare of assay animals were carried out in accordance with the regulations of the Association for Assessment and Accreditation of Laboratory Animal Care (AAALAC). Animals were monitored daily for health and death. Routine examinations included observation of tumor growth and the effects of drug treatment on the animals' daily behavior such as behavioral activities, food and water intake (visual inspection only), weight changes (weight measurements twice a week), appearance signs or other abnormalities. Animal deaths and side effects in each group were recorded based on the number of animals in each group.\n• a) Vehicle group: 5% DMSO+95% (20% HP-β-CD). • b) Assay compound group: A quantitative amount of the assay compound was weighed in a formulation bottle. A corresponding volume of DMSO was added and then the mixture was vortexed to obtain a clear solution. A corresponding volume of 20% HP-β-CD was added and then the mixture was vortexed to obtain a homogeneous suspension.\n• a) Tumor diameter was measured twice a week with a vernier caliper. The calculation formula of tumor volume was: TV=1/2×a×b^2, wherein a and b represent the long and short diameters of tumor, respectively; • b) The tumor-inhibitory efficacy of the compound was evaluated by TGI (%). TGI (%) reflected the inhibition rate of tumor growth. TGI (%) was calculated as follows: TGI (%)={[1−(average tumor volume at the end of administration of a treatment group−average tumor volume at the beginning of administration of this treatment group)]/(average tumor volume at the end of treatment in a solvent control group−average tumor volume at the beginning of treatment in the solvent control group)}×100%."}}, "data": [{"smiles": "Cc1cccc(CN2C(=O)c3nc(-c4nc(Nc5ccnn5C)ncc4C)sc3C2(C)C)n1", "note": "[WX001]", "values": [{"measurement": "Oral DNAUC (AUCPO/Dose)", "setting": "In vivo PK study in mice; 3 mg/kg orally", "result": 787.18, "unit": "nM · h/mpk"}, {"measurement": "clearance", "setting": "In vivo PK study in mice; mouse, plasma, iv, 1 mg/kg intravenously", "result": 27.5, "unit": "mL/min/kg"}, {"measurement": "Vd", "setting": "In vivo PK study in mice; mouse, plasma, iv, 1 mg/kg intravenously, read-out: Vdss", "result": 1.6, "unit": "L/kg"}, {"measurement": "bioavailability", "setting": "In vivo PK study in mice; mouse, plasma, oral, 1 mg/kg intravenously / 3 mg/kg orally, read-out: F % (oral bioavailability)", "result": 62, "unit": "%"}, {"measurement": "half-life", "setting": "In vivo PK study in mice; mouse, plasma, single administration", "result": 1.29, "unit": "h"}, {"measurement": "Cmax", "setting": "In vivo PK study in mice; mouse, po, 3 mg/kg orally, plasma", "result": 2120, "unit": "nM"}, {"measurement": "Plasma protein binding rate (unbound %)", "setting": "canine plasma albumin", "result": 4.1, "unit": "%"}, {"measurement": "TGI", "setting": "[1]; 5 mg/kg", "result": 36, "unit": "%"}, {"measurement": "TGI", "setting": "[1]; 10 mg/kg", "result": 81, "unit": "%"}, {"measurement": "TGI", "setting": "[1]; 20 mg/kg", "result": 104, "unit": "%"}, {"measurement": "tolerance", "setting": "[1]; 5, 10, 20 mg/kg PO BID, during the administration", "result": "the tolerance is good"}, {"measurement": "body weight of animals", "setting": "[1]; 5, 10, 20 mg/kg PO BID, to the 21st day", "result": "did not decrease significantly"}]}]}
